Source: ChEMBL document CHEMBL4834420, “Projected Dose Optimization of Amino- and Hydroxypyrrolidine Purine PI3Kδ Immunomodulators” (J Med Chem, 2021)
Values belong to the compound of their own block, whether it stands above or below them.

Assays:
[1] = Intrinsic clearance in Wistar Han rat at 0.5 mg/kg, iv or 1 mg/kg, po; type: ADME, organism-based; conditions: in vivo
[2] = Half-life in Wistar Han rat; type: ADME; conditions: in vivo
[3] = Inhibition of adenosine transporter in human HeLa cells assessed as reduction in [3H]adenosine uptake preincubated for 30 mins followed by [3H]adenosine addition and measured after 60 mins; type: cell-based
[4] = Lipophilicity, log D of the compound by HPLC analysis; type: physicochemical
[5] = Half-life in Beagle dog; type: ADME, Canis lupus familiaris; conditions: in vivo
[6] = Volume of distribution in Wistar Han rat; type: ADME; conditions: in vivo
[7] = Plasma clearance in Beagle dog at 0.05 mg/kg; type: ADME, organism-based, Canis lupus familiaris
[8] = Volume of distribution in Beagle dog; type: ADME, Canis lupus familiaris; conditions: in vivo
[9] = Plasma clearance in Wistar Han rat at 0.5 mg/kg, iv or 1 mg/kg, po; type: ADME, organism-based
[10] = Oral bioavailability in Wistar Han rat; type: ADME, organism-based; conditions: in vivo
[11] = Unbound volume of distribution in Wistar Han rat; type: ADME; conditions: in vivo
[12] = Intrinsic clearance in Beagle dog at 0.05 mg/kg; type: ADME, organism-based, Canis lupus familiaris; conditions: in vivo
[13] = biological target: PI3-kinase p110-delta/p85-alpha (Homo sapiens, UniProt O00329); assay: Inhibition of N-terminal His6-tagged recombinant full length human p110delta/untagged recombinant full length human p85alpha expressed in baculovirus infected Sf21 insect cells using PIP2 as substrate preincubated for 15 mins followed by substrate addition and measured after 1 hr by HTRF assay
[14] = biological target: T1, Phosphatidylinositol 4,5-bisphosphate 3-kinase catalytic subunit delta isoform (Homo sapiens, UniProt O00329); assay: Inhibition of PI3Kdelta in human Ramos cells assessed as reduction in anti-IgM-antibody-induced phosphorylation of AKT at Ser473 residue preincubated for 20 mins followed by anti-IgM antibody stimulation and measured after 30 mins by alphascreen assay; type: cell-based
T1 sequence (O00329 whole entry): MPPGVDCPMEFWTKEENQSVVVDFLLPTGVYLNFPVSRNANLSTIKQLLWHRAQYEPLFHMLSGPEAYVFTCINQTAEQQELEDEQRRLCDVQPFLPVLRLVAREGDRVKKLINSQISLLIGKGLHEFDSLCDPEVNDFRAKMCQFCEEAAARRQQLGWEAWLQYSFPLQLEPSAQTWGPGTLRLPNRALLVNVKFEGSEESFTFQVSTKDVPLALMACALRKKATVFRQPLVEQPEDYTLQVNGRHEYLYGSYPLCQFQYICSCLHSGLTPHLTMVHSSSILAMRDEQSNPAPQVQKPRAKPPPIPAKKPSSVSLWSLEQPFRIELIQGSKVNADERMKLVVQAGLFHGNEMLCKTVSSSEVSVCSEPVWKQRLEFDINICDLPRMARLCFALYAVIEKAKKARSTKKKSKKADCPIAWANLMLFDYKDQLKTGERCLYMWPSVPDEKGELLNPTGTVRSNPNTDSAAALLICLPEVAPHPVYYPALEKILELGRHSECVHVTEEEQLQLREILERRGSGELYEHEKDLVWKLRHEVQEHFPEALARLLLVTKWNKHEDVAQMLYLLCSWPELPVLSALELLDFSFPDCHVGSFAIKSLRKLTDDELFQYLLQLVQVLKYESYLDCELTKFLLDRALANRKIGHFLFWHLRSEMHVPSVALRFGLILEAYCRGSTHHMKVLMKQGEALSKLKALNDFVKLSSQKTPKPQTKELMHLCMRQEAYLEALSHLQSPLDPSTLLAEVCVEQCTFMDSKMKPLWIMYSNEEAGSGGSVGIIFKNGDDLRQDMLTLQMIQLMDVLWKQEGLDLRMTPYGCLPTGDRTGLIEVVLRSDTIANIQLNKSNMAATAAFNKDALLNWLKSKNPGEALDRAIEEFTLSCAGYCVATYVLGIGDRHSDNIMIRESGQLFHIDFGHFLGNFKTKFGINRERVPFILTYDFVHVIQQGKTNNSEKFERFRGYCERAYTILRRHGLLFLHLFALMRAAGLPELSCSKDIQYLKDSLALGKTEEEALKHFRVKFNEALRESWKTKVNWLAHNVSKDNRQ

[15] = Unbound volume of distribution in Beagle dog; type: ADME, Canis lupus familiaris; conditions: in vivo
[16] = biological target: T1, Phosphatidylinositol 4,5-bisphosphate 3-kinase catalytic subunit delta isoform; assay: Inhibition of PI3Kdelta in human whole blood assessed as reduction in anti-CD79b antibody-induced CD69 expression preincubated for 60 mins followed by anti-CD79b antibody stimulation and measured after 3 hrs by FACS analysis; type: tissue-based
[17] = Plasma clearance in Wistar Han rat at 0.05 mg/kg, iv or 1 mg/kg, po; type: ADME, organism-based
[18] = Intrinsic clearance in Wistar Han rat at 0.05 mg/kg, iv or 1 mg/kg, po; type: ADME, organism-based; conditions: in vivo
[19] = Apparent permeability in pig LLC-PK1 cells; type: ADME, cell-based, Sus scrofa
[20] = Intrinsic clearance in Beagle dog at 0.25 mg/kg, iv or 0.5 mg/kg, po; type: ADME, organism-based, Canis lupus familiaris; conditions: in vivo
[21] = Plasma clearance in Beagle dog at 0.25 mg/kg, iv or 0.5 mg/kg, po; type: ADME, organism-based, Canis lupus familiaris
[22] = Oral bioavailability in Beagle dog; type: ADME, organism-based, Canis lupus familiaris; conditions: in vivo

Chain of PI3-kinase p110-delta/p85-alpha (P27986 whole entry, one chain of several, canonical isoform): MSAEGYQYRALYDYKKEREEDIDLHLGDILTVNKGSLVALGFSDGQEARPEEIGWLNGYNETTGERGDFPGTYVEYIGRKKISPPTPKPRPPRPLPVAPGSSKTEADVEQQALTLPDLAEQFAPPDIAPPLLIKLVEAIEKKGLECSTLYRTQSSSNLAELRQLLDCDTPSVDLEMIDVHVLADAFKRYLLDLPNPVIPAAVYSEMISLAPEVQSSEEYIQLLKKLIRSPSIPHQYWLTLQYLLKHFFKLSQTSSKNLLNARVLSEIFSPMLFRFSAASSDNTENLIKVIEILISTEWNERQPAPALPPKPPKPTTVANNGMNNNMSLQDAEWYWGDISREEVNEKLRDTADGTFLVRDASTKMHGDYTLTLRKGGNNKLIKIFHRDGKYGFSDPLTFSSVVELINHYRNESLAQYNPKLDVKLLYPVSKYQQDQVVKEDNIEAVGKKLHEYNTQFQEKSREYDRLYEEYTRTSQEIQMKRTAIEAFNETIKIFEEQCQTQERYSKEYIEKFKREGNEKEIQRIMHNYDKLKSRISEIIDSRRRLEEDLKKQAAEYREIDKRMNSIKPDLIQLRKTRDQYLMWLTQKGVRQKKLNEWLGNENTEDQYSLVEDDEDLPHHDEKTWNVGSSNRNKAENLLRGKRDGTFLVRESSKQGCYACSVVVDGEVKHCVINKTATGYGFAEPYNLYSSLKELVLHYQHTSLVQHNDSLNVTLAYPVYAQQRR

SMILES: CCn1c(-c2cnc(C)nc2)nc2c(O[C@H]3CCN(C(=O)C4CC(F)(F)C4)C3)ncnc21
half-life [2]: 1.4 h
IC50 [3]: 9900 nM
IC50 [16]: 84 nM
logD [4]: 1.5
half-life [5]: 0.8 h
clearance [17]: 6 mL/min/kg
Vd [6]: 0.5 L/kg
clearance [7]: 23 mL/min/kg
Vd [8]: 1.4 L/kg
Vdu [11]: 3 L/kg
CL [18]: 28 mL/min/kg
CL [12]: 170 mL/min/kg
IC50 [13]: 3.8 nM
IC50 [14]: 32 nM
Vdu [15]: 2.5 L/kg

SMILES: CCn1c(-c2cnc(C)nc2)nc2c(O[C@H]3CCN(C(=O)C4CCOC4)C3)ncnc21 (stereo not given in full)
half-life [2]: 1.4 h
IC50 [3]: > 10000 nM
logD [4]: 0.7
half-life [5]: 3.8 h
clearance [17]: 6.2 mL/min/kg
Vd [6]: 0.5 L/kg
clearance [7]: 3 mL/min/kg
Vd [8]: 0.7 L/kg
Vdu [11]: 0.9 L/kg
CL [18]: 12 mL/min/kg
CL [12]: 4.2 mL/min/kg
IC50 [13]: 6 nM
Vdu [15]: 0.9 L/kg

SMILES: CCn1c(-c2cnc(C)nc2)nc2c(O[C@H]3CCN(C(=O)N4CC(OC)C4)C3)ncnc21
CL [1]: 25 mL/min/kg
half-life [2]: 1.7 h
IC50 [3]: 8700 nM
logD [4]: 0.9
half-life [5]: 1.2 h
Vd [6]: 0.4 L/kg
clearance [7]: 12 mL/min/kg
Vd [8]: 1.4 L/kg
clearance [9]: 4 mL/min/kg
bioavailability [10]: 75%
Vdu [11]: 2.1 L/kg
CL [12]: 32 mL/min/kg
IC50 [13]: 3.3 nM
IC50 [14]: 63 nM
Vdu [15]: 2.3 L/kg

SMILES: CCn1c(-c2cnc(C)nc2)nc2c(N[C@H]3CCN(C(=O)C4CCOC4)C3)ncnc21 (stereo not given in full)
half-life [2]: 0.6 h
IC50 [3]: > 10000 nM
logD [4]: 0.6
clearance [17]: 18 mL/min/kg
Vd [6]: 0.7 L/kg
Vdu [11]: 2.3 L/kg
CL [18]: 74 mL/min/kg
IC50 [13]: 1.6 nM

SMILES: CCC(=O)N1CC[C@H](Oc2ncnc3c2nc(-c2cnc(C)nc2)n3CC)C1
half-life [2]: 1.2 h
IC50 [3]: > 10000 nM
logD [4]: 0.8
half-life [5]: 3.9 h
clearance [17]: 12 mL/min/kg
Vd [6]: 1.2 L/kg
clearance [7]: 6.1 mL/min/kg
Vd [8]: 1.9 L/kg
Vdu [11]: 2.4 L/kg
CL [18]: 31 mL/min/kg
CL [12]: 11 mL/min/kg
Papp [19]: 21 ×10⁻⁶ cm/s
Vdu [15]: 2.7 L/kg

SMILES: CCn1c(-c2cnc(C)nc2)nc2c(O[C@H]3CCN(C(=O)C4CCOCC4)C3)ncnc21
CL [1]: 37 mL/min/kg
half-life [2]: 1.4 h
IC50 [3]: > 10000 nM
logD [4]: 0.8
half-life [5]: 1.9 h
Vd [6]: 0.8 L/kg
clearance [7]: 4.3 mL/min/kg
Vd [8]: 0.8 L/kg
clearance [9]: 14 mL/min/kg
bioavailability [10]: 31%
Vdu [11]: 1.5 L/kg
CL [12]: 7 mL/min/kg
IC50 [13]: 13 nM
IC50 [14]: 390 nM
Vdu [15]: 1.1 L/kg

SMILES: CCC(=O)N1CC[C@H](Nc2ncnc3c2nc(-c2cnc(C)nc2)n3CC)C1
CL [1]: 100 mL/min/kg
half-life [2]: 1.5 h
IC50 [3]: > 10000 nM
logD [4]: 0.7
half-life [5]: 2.7 h
Vd [6]: 1 L/kg
clearance [7]: 5.5 mL/min/kg
Vd [8]: 1.5 L/kg
clearance [9]: 21 mL/min/kg
bioavailability [10]: 61%
Vdu [11]: 3.6 L/kg
CL [12]: 9 mL/min/kg
IC50 [13]: 1.9 nM
IC50 [14]: 42 nM
Papp [19]: 21 ×10⁻⁶ cm/s
Vdu [15]: 1.9 L/kg

SMILES: CCn1c(-c2cnc(C)nc2)nc2c(N[C@H]3CCN(C(=O)c4cocn4)C3)ncnc21
half-life [2]: 0.7 h
logD [4]: 0.6
clearance [17]: 13 mL/min/kg
Vd [6]: 0.6 L/kg
Vdu [11]: 6.1 L/kg
CL [18]: 150 mL/min/kg
IC50 [14]: 82 nM

SMILES: CCn1c(-c2cnc(C)nc2)nc2c(O[C@H]3CCN(C(=O)[C@H]4C[C@@H](OC)C4)C3)ncnc21
CL [1]: 19 mL/min/kg
CL [20]: 3.3 mL/min/kg
half-life [2]: 1.8 h
IC50 [3]: > 10000 nM
IC50 [16]: 75 nM
logD [4]: 1
half-life [5]: 3.6 h
Vd [6]: 0.5 L/kg
Vd [8]: 0.6 L/kg
clearance [9]: 3.8 mL/min/kg
clearance [21]: 2.1 mL/min/kg
bioavailability [10]: 37%
Vdu [11]: 2.5 L/kg
bioavailability [22]: 80%
IC50 [13]: 2.8 nM
IC50 [14]: 110 nM
Papp [19]: 18 ×10⁻⁶ cm/s
Vdu [15]: 0.9 L/kg

The remaining compounds from weak to strong by IC50 [3], led by results:

half-life [2]: 0.3 h
IC50 [3]: 7700 nM
logD [4]: 1.3
half-life [5]: 1.1 h
clearance [17]: 28 mL/min/kg
Vd [6]: 0.6 L/kg
clearance [7]: 12 mL/min/kg
Vd [8]: 1 L/kg
Vdu [11]: 4 L/kg
CL [18]: 270 mL/min/kg
CL [12]: 27 mL/min/kg
IC50 [13]: 1.2 nM
IC50 [14]: 14 nM
Vdu [15]: 1.4 L/kg
SMILES: CCn1c(-c2cnc(C)nc2)nc2c(O[C@H]3CCN(C(=O)C4CCC4)C3)ncnc21

half-life [2]: 0.7 h
IC50 [3]: 5600 nM
logD [4]: 2.3
clearance [17]: 15 mL/min/kg
Vd [6]: 0.7 L/kg
Vdu [11]: 8.3 L/kg
CL [18]: 240 mL/min/kg
IC50 [13]: 5.1 nM
IC50 [14]: 49 nM
SMILES: CCn1c(-c2ccc(C(F)(F)F)nc2)nc2c(O[C@H]3CCN(C(=O)C4CC4)C3)ncnc21

half-life [2]: 0.4 h
IC50 [3]: 3800 nM
logD [4]: 1.5
clearance [17]: 26 mL/min/kg
Vd [6]: 0.9 L/kg
Vdu [11]: 18 L/kg
CL [18]: 760 mL/min/kg
IC50 [13]: 2.2 nM
IC50 [14]: 13 nM
SMILES: CCn1c(-c2cnc(C)nc2)nc2c(N[C@H]3CCN(C(=O)C4CC(F)(F)C4)C3)ncnc21

CL [1]: 19 mL/min/kg
CL [20]: 6 mL/min/kg
half-life [2]: 2.3 h
IC50 [3]: 3200 nM
IC50 [16]: 100 nM
logD [4]: 1.9
half-life [5]: 3.6 h
Vd [6]: 0.2 L/kg
Vd [8]: 0.9 L/kg
clearance [9]: 1.2 mL/min/kg
clearance [21]: 3.4 mL/min/kg
bioavailability [10]: 58%
Vdu [11]: 3.6 L/kg
bioavailability [22]: 100%
IC50 [13]: 4.1 nM
IC50 [14]: 110 nM
Papp [19]: 27 ×10⁻⁶ cm/s
Vdu [15]: 1.6 L/kg
SMILES: CCn1c(-c2ccc(C(F)(F)F)nc2)nc2c(O[C@H]3CCN(C(=O)C4CCOC4)C3)ncnc21 (stereo not given in full)

CL [1]: 104 mL/min/kg
half-life [2]: 1.2 h
IC50 [3]: 1200 nM
logD [4]: 2
half-life [5]: 3.1 h
Vd [6]: 0.4 L/kg
clearance [7]: 5.6 mL/min/kg
Vd [8]: 1.2 L/kg
clearance [9]: 4.7 mL/min/kg
bioavailability [10]: 36%
Vdu [11]: 8.8 L/kg
CL [12]: 22 mL/min/kg
IC50 [13]: 1.7 nM
IC50 [14]: 12 nM
Vdu [15]: 3.9 L/kg
SMILES: CCn1c(-c2ccc(C(F)(F)F)nc2)nc2c(N[C@H]3CCN(C(=O)C4CC4)C3)ncnc21
